Experimental data from patent US20150157588A1, “Pharmaceutical Composition Comprising Amino-Phenyl-Acetic Acid Octadec-(Z)-9-enyl Ester and Use Thereof for Treating Tumors” (Yeda Research and Development Co., Ltd., priority 2012, published 2015).

Tests used:
[1] = test system: human peripheral blood T cells; assay: Apoptosis by FACS, hypo-diploid nuclei PI staining, healthy T cells; format: cell-based; conditions: 10 μg in ethanol solution, versus control molecule
Description: (§1) White bars (left bar of each pair) represent cells treated with 10 μg of amino-phenyl-acetic acid octadec-(Z)-9-enyl ester in ethanol solution, and black bars (right bar of each pair) represent cells treated with 10 μg of the control molecule 4-methyl-piperazino-acetic acid ethyl ester in ethanol solution. The two bars on the left represent freshly isolated T cells and the two bars on the right represent transformed Jurkat cells.
(§2) B or T-cell apoptosis was detected by flow cytometry. Briefly, purified cells were seeded in 24 well plates, 5×10^5 per well, and incubated for 48 h at 37° C. 5% CO2 in the presence of HSP60 (heat shock protein 60) at the indicated concentration of amino-phenyl-acetic acid octadec-(Z)-9-enyl ester. […] The cells were then subjected to flow cytometric analysis; for each sample 10,000 were collected and cell-cycle distribution was analyzed according to relative DNA content (PI staining). […] The cells were then collected, stained by APO-DIRECT TUNNEL kit (Phnxflow, CITY, Calif., USA); mitochondrial potential was measured by DePsipher (R&D Systems, Minneapolis, Minn.) according to the manufacturer's procedure. Intracellular caspase activity was measured by Apostat kit (R&D Systems), according to the manufacturer's procedure. The cells were analyzed by Flow cytometry using FACSort (Becton Dickinson) and CellQuest software (Becton Dickinson).

[2] = test system: p53 expressing L-12 mouse B cell line; assay: Apoptosis by hypo-diploid nuclei PI staining, transformed B cell line; format: cell-based; conditions: 10 or 100 μg per ml in 5% ethanol solution, 48 h
Description: Apoptosis was measured by FACS analysis with a hypo-diploid nuclei propidium iodide (PI) staining of an amino-phenyl-acetic acid octadec-(Z)-9-enyl ester treated p53 expressing L-12 mouse B cell line. FIGS. 4A-4C: L-12 cells treated with 0, 10 or 100 μg/ml of amino-phenyl-acetic acid octadec-(Z)-9-enyl ester in ethanol solution, respectively; FIGS. 4D-4F: L-12 cells treated with 0, 10 or 100 μg/ml of the control reagent 4-methyl-piperazino-acetic acid ethyl ester in ethanol solution, respectively; and FIGS. 4G-4I: L-12 cells treated with an ethanol volume corresponding to 0, 10 or 100 μg/ml of amino-phenyl-acetic acid octadec-(Z)-9-enyl ester, respectively. FL2-A is the measure of fluorescence. […]
as §2, with “cytometry.” for “cytometry. Briefly, purified cells were seeded in 24 well plates, 5×10^5 per well, and incubated for 48 h at 37° C. 5% CO2 in the presence of HSP60 (heat shock protein 60) at the indicated concentration of amino-phenyl-acetic acid octadec-(Z)-9-enyl ester.”, “Dickinson). […]” for “Dickinson).”

[3] = test system: Jurkat transformed T cell line; assay: Apoptosis by FACS, hypo-diploid nuclei PI staining, Jurkat cells; format: cell-based, human; conditions: Jurkat tumor line cells; 10 μg in ethanol solution
Description: as §1, §2

virulent 3LL clone, D122 = assay: 3LL induced lung carcinoma, intravenous injection of D122 cells, deaths and lung weight; format: in vivo, mouse; conditions: for lung weight of the living mice: in mg (unit assumed); for number of dead mice: groups of 10, control seven
Description: 8-weeks old C57BL/6 male mice in groups of 10 were injected intravenously with 500,000 cells of a virulent 3LL clone, D122. Mice were treated daily for 35 days with either 5% ethanol in PBS (control); 100 μg amino-phenyl-acetic acid octadec-(Z)-9-enyl ester in 5% ethanol in PBS subcutaneously (SC); or 100 μg amino-phenyl-acetic acid octadec-(Z)-9-enyl ester in 5% ethanol in PBS intranasally (IN).
8-weeks old C57BL/6 male mice in groups of 10 were injected intravenously with 500,000 cells of a virulent 3LL clone, D122. Mice either left untreated, or were treated daily for 30 days with intranasal administration of either 5% ethanol in PBS (control); 100 μg of amino-phenyl-acetic acid octadec-(Z)-9-enyl ester in PBS; or 100 μg of amino-phenyl-acetic acid octadec-(Z)-9-enyl ester in 5% ethanol in PBS.
As shown in FIGS. 7A-7D, while treatment with amino-phenyl-acetic acid octadec-(Z)-9-enyl ester in PBS reduced the lung weight of the living mice from 718±351 in the control mice treated with 5% ethanol in PBS to 671±187 (FIGS. 7B-7C), treatment with amino-phenyl-acetic acid octadec-(Z)-9-enyl ester in ethanol solution reduced the lung weight of the living mice to 317±103 (FIG. 7D).

[4] = 100 μg in 5% ethanol in PBS intranasally daily for 35 days
[5] = 100 μg in 5% ethanol in PBS subcutaneously daily for 35 days

CCCCCCCC/C=C\CCCCCCCCOC(=O)C(N)c1ccccc1 (stereo not drawn) [amino-phenyl-acetic acid octadec-(Z)-9-enyl ester]
apoptosis [1]: no more apoptosis than with a control molecule | apoptosis / cell cycle (cells in sub-GO state) [2]: induced massive apoptosis | apoptosis [3]: 100% | lung weight of the living mice (virulent 3LL clone, D122; 100 μg in 5% ethanol in PBS intranasally daily for 30 days): 317±103 | number of dead mice (virulent 3LL clone, D122; [4]): a single mouse | lung weight of the living mice (virulent 3LL clone, D122; [4]): 259±84 | number of dead mice (virulent 3LL clone, D122; [5]): four | lung weight of the living mice (virulent 3LL clone, D122; [5]): 501±252 | lung weight of the living mice (virulent 3LL clone, D122; 100 μg in PBS intranasally daily for 30 days): 671±187
